The record followed here is patent US4450269A, “Mono-5-substituted-3-chloro-4H-1,2,6-thiadiazin-4-one antifungal agents” (FMC Corporation, priority 1980, dated 1984).

Like-named read-outs stand apart in the source and are kept apart here.

What all share (assay type): cell-based
Experiment [1] concerns Phytophthora infestans. To be noted: PI, 48 hours.
The test system of experiment [2] is Uromyces phaseoli. As to the kind of experiment: Spore germination test. To be noted: UP, 48 hours. Summed up:
(§1)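 Compound was delivered in acetone into water agar at final 40, 10, 2.5 and 1 ppm. Alternaria solani and Botrytis cinerea spores were applied as sterile-water suspensions, while Erysiphe polygoni and Uromyces phaseoli spores were brushed on from infected leaves. After 48 h at 24° C., percentage germination was converted to a rating.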

The subject of experiment [3] is Erysiphe polygoni. As to the kind of experiment: Spore germination test. To be noted: EP, 48 hours. The procedure, abridged: as §1

`O=c1c(Cl)nsnc1Oc1ccccc1Cl` [Compound 14, 3-chloro-5-(2-chlorophenoxy)-4H--1,2,6-thiadiazin-4-one]: the “Spore Germination Rating” value in experiment [1] (1.0 ppm), in experiment [1] (2.5 ppm), in experiment [1] (10 ppm), in experiment [1] (40 ppm), in experiment [2] (1.0 ppm) and in experiment [2] (2.5 ppm) was 0 (0-10) in each case. The “Spore Germination Rating” value in experiment [2] (10 ppm) is 0 (0-10); in experiment [2] (40 ppm) it was 0 (0-10); in experiment [3] (1.0 ppm) it was 4 (80-100); in experiment [3] (2.5 ppm) it was 4 (80-100); in experiment [3] (10 ppm), 2 (40-60); in experiment [3] (40 ppm), 0 (0-10).
As to `O=c1c(Cl)nsnc1Oc1ccc(Br)cc1` [Compound 15, 3-chloro-5-(4-bromophenoxy)-4H--1,2,6-thiadiazin-4-one], the “Spore Germination Rating” value in experiment [1] (1.0 ppm) was 0 (0-10); in experiment [1] (2.5 ppm) it was 1 (10-40); in experiment [1] (10 ppm), 0 (0-10); in experiment [1] (40 ppm) it was 0 (0-10); in experiment [2] (1.0 ppm), 1 (10-40); in experiment [2] (2.5 ppm), 0 (0-10). Besides, the “Spore Germination Rating” value is 0 (0-10) in experiment [2] (10 ppm); 0 (0-10) in experiment [2] (40 ppm); 4 (80-100) in experiment [3] (1.0 ppm); 1 (10-40) in experiment [3] (2.5 ppm); 0 (0-10) in experiment [3] (10 ppm); 0 (0-10) in experiment [3] (40 ppm).
`O=c1c(Cl)nsnc1Oc1ccc(Cl)c(Cl)c1` [Compound 16, 3-chloro-5-(3,4-dichlorophenoxy)-4H--1,2,6-thiadiazin-4-one]: the “Spore Germination Rating” value in experiment [1] (1.0 ppm) is on record as 1 (10-40); in experiment [1] (2.5 ppm), 0 (0-10); in experiment [1] (10 ppm), 0 (0-10); in experiment [1] (40 ppm) it was 0 (0-10); in experiment [2] (1.0 ppm), 1 (10-40); in experiment [2] (2.5 ppm), 0 (0-10). In addition, the “Spore Germination Rating” value in experiment [2] (10 ppm) is listed as 0 (0-10); in experiment [2] (40 ppm) it was 0 (0-10); in experiment [3] (1.0 ppm), 4 (80-100); in experiment [3] (2.5 ppm), 3 (60-80); in experiment [3] (10 ppm), 1 (10-40); in experiment [3] (40 ppm), 4 (80-100).
Regarding `O=c1c(Cl)nsnc1Oc1ccc(Cl)cc1Cl` [Compound 17, 3-chloro-5-(2,4-dichlorophenoxy)-4H--1,2,6-thiadiazin-4-one], the “Spore Germination Rating” value in experiment [1] (1.0 ppm) is reported as 3 (60-80); in experiment [1] (2.5 ppm), 0 (0-10); in experiment [1] (10 ppm), 0 (0-10); in experiment [1] (40 ppm), 0 (0-10); in experiment [2] (1.0 ppm) it was 0 (0-10); in experiment [2] (2.5 ppm), 0 (0-10). The “Spore Germination Rating” value is given as 0 (0-10) in experiment [2] (10 ppm); 0 (0-10) in experiment [2] (40 ppm); 3 (60-80) in experiment [3] (1.0 ppm); 1 (10-40) in experiment [3] (2.5 ppm); 0 (0-10) in experiment [3] (10 ppm); 0 (0-10) in experiment [3] (40 ppm).
In the case of `O=c1c(Cl)nsnc1Oc1c(Cl)cccc1Cl` [Compound 18, 3-chloro-5-(2,6-dichlorophenoxy)-4H--1,2,6-thiadiazin-4-one], the “Spore Germination Rating” value is reported as 3 (60-80) in experiment [1] (1.0 ppm); 0 (0-10) in experiment [1] (2.5 ppm); 0 (0-10) in experiment [1] (10 ppm); 0 (0-10) in experiment [1] (40 ppm); 0 (0-10) in experiment [2] (1.0 ppm); 0 (0-10) in experiment [2] (2.5 ppm). The “Spore Germination Rating” value in experiment [2] (10 ppm) was 0 (0-10); in experiment [2] (40 ppm), 0 (0-10); in experiment [3] (1.0 ppm), 2 (40-60); in experiment [3] (2.5 ppm), 1 (10-40); in experiment [3] (10 ppm), 0 (0-10); in experiment [3] (40 ppm), 0 (0-10).
As for `O=c1c(Cl)nsnc1Oc1cccc(Cl)c1Cl` [Compound 19, 3-chloro-5-(2,3-dichlorophenoxy)-4H--1,2,6-thiadiazin-4-one], the “Spore Germination Rating” value is on record as 3 (60-80) in experiment [1] (1.0 ppm); 0 (0-10) in experiment [1] (2.5 ppm); 0 (0-10) in experiment [1] (10 ppm); 0 (0-10) in experiment [1] (40 ppm); 0 (0-10) in experiment [2] (1.0 ppm); 0 (0-10) in experiment [2] (2.5 ppm). Besides, the “Spore Germination Rating” value in experiment [2] (10 ppm) is 0 (0-10); in experiment [2] (40 ppm) it was 0 (0-10); in experiment [3] (1.0 ppm), 3 (60-80); in experiment [3] (2.5 ppm), 1 (10-40); in experiment [3] (10 ppm) it was 0 (0-10); in experiment [3] (40 ppm), 0 (0-10).
In the case of `O=c1c(Cl)nsnc1Oc1cc(Cl)cc(Cl)c1` [Compound 20, 3-chloro-5-(3,5-dichlorophenoxy)-4H--1,2,6-thiadiazin-4-one], the “Spore Germination Rating” value in experiment [1] (1.0 ppm), in experiment [1] (2.5 ppm), in experiment [1] (10 ppm), in experiment [1] (40 ppm), in experiment [2] (1.0 ppm) and in experiment [2] (2.5 ppm) was 0 (0-10) in each case. Further, the “Spore Germination Rating” value in experiment [2] (10 ppm) is 0 (0-10); in experiment [2] (40 ppm), 0 (0-10); in experiment [3] (1.0 ppm) it was 3 (60-80); in experiment [3] (2.5 ppm), 0 (0-10); in experiment [3] (10 ppm), 0 (0-10); in experiment [3] (40 ppm), 0 (0-10).
On to `Cc1cccc(Oc2nsnc(Cl)c2=O)c1` [Compound 21, 3-chloro-5-(3-methylphenoxy)-4H--1,2,6-thiadiazin-4-one], for which the “Spore Germination Rating” value in experiment [1] (1.0 ppm) is given as 4 (80-100); in experiment [1] (2.5 ppm), 1 (10-40); in experiment [1] (10 ppm) it was 0 (0-10); in experiment [1] (40 ppm), 0 (0-10); in experiment [2] (1.0 ppm) it was 4 (80-100); in experiment [2] (2.5 ppm), 2 (40-60). The “Spore Germination Rating” value in experiment [2] (10 ppm) is 0 (0-10); in experiment [2] (40 ppm) it was 0 (0-10); in experiment [3] (1.0 ppm), 4 (80-100); in experiment [3] (2.5 ppm) it was 3 (60-80); in experiment [3] (10 ppm), 2 (40-60); in experiment [3] (40 ppm) it was 0 (0-10).
Take `Cc1ccccc1Oc1nsnc(Cl)c1=O` [Compound 22, 3-chloro-5-(2-methylphenoxy)-4H--1,2,6-thiadiazin-4-one]: the “Spore Germination Rating” value in experiment [1] (1.0 ppm) is reported as 0 (0-10); in experiment [1] (2.5 ppm), 0 (0-10); in experiment [1] (10 ppm) it was 0 (0-10); in experiment [1] (40 ppm) it was 0 (0-10); in experiment [2] (1.0 ppm), 4 (80-100); in experiment [2] (2.5 ppm), 2 (40-60). In addition, the “Spore Germination Rating” value in experiment [2] (10 ppm) is reported as 1 (10-40); in experiment [2] (40 ppm) it was 0 (0-10); in experiment [3] (1.0 ppm), 4 (80-100); in experiment [3] (2.5 ppm) it was 4 (80-100); in experiment [3] (10 ppm), 3 (60-80); in experiment [3] (40 ppm), 1 (10-40).
With `Cc1ccc(Oc2nsnc(Cl)c2=O)c(C)c1` [Compound 23, 3-chloro-5-(2,4-dimethylphenoxy)-4H--1,2,6-thiadiazin-4-one], the “Spore Germination Rating” value in experiment [1] (1.0 ppm) is on record as 4 (80-100); in experiment [1] (2.5 ppm), 2 (40-60); in experiment [1] (10 ppm) it was 2 (40-60); in experiment [1] (40 ppm), 0 (0-10); in experiment [2] (1.0 ppm), 4 (80-100); in experiment [2] (2.5 ppm), 4 (80-100). Besides, the “Spore Germination Rating” value is 1 (10-40) in experiment [2] (10 ppm); 0 (0-10) in experiment [2] (40 ppm); 4 (80-100) in experiment [3] (1.0 ppm); 4 (80-100) in experiment [3] (2.5 ppm); 3 (60-80) in experiment [3] (10 ppm); 1 (10-40) in experiment [3] (40 ppm).
For `Cc1cccc(C)c1Oc1nsnc(Cl)c1=O` [Compound 24, 3-chloro-5-(2,6-dimethylphenoxy)-4H--1,2,6-thiadiazin-4-one], the “Spore Germination Rating” value in experiment [1] (1.0 ppm) is 4 (80-100); in experiment [1] (2.5 ppm), 2 (40-60); in experiment [1] (10 ppm) it was 1 (10-40); in experiment [1] (40 ppm), 0 (0-10); in experiment [2] (1.0 ppm) it was 1 (10-40); in experiment [2] (2.5 ppm), 0 (0-10). Also, the “Spore Germination Rating” value is reported as 0 (0-10) in experiment [2] (10 ppm); 0 (0-10) in experiment [2] (40 ppm); 3 (60-80) in experiment [3] (1.0 ppm); 1 (10-40) in experiment [3] (2.5 ppm); 0 (0-10) in experiment [3] (10 ppm); 0 (0-10) in experiment [3] (40 ppm).
In the case of `Cc1cc(C)cc(Oc2nsnc(Cl)c2=O)c1` [Compound 25, 3-chloro-5-(3,5-dimethylphenoxy)-4H--1,2,6-thiadiazin-4-one], the “Spore Germination Rating” value was 4 (80-100) in experiment [1] (1.0 ppm); 1 (10-40) in experiment [1] (2.5 ppm); 0 (0-10) in experiment [1] (10 ppm); 0 (0-10) in experiment [1] (40 ppm); 4 (80-100) in experiment [2] (1.0 ppm); 2 (40-60) in experiment [2] (2.5 ppm). Further, the “Spore Germination Rating” value in experiment [2] (10 ppm) is 1 (10-40); in experiment [2] (40 ppm), 0 (0-10); in experiment [3] (1.0 ppm), 4 (80-100); in experiment [3] (2.5 ppm) it was 4 (80-100); in experiment [3] (10 ppm), 0 (0-10); in experiment [3] (40 ppm) it was 0 (0-10).
`Nc1ccc(Oc2nsnc(Cl)c2=O)cc1` [Compound 26, 5-(4-aminophenoxy)-3-chloro-4H--1,2,6-thiadiazin-4-one]: the “Spore Germination Rating” value in experiment [1] (1.0 ppm) is given as 4 (80-100); in experiment [1] (2.5 ppm), 4 (80-100); in experiment [1] (10 ppm) it was 4 (80-100); in experiment [1] (40 ppm), 2 (40-60); in experiment [2] (1.0 ppm) it was 2 (40-60); in experiment [2] (2.5 ppm), 3 (60-80). Further, the “Spore Germination Rating” value is on record as 4 (80-100) in experiment [2] (10 ppm); 2 (40-60) in experiment [2] (40 ppm); 4 (80-100) in experiment [3] (1.0 ppm); 4 (80-100) in experiment [3] (2.5 ppm); 4 (80-100) in experiment [3] (10 ppm); 4 (80-100) in experiment [3] (40 ppm).
With `CNC(=O)Nc1ccc(Oc2nsnc(Cl)c2=O)cc1` [Compound 28, 3-chloro-5-[4-(3-methylureido)-phenoxy]-4H--1,2,6-thiadiazin-4-one], the “Spore Germination Rating” value is given as 4 (80-100) in experiment [1] (1.0 ppm); 4 (80-100) in experiment [1] (2.5 ppm); 4 (80-100) in experiment [1] (10 ppm); 2 (40-60) in experiment [1] (40 ppm); 4 (80-100) in experiment [2] (1.0 ppm); 2 (40-60) in experiment [2] (2.5 ppm). In addition, the “Spore Germination Rating” value is listed as 2 (40-60) in experiment [2] (10 ppm); 2 (40-60) in experiment [2] (40 ppm); 4 (80-100) in experiment [3] (1.0 ppm); 4 (80-100) in experiment [3] (2.5 ppm); 4 (80-100) in experiment [3] (10 ppm); 4 (80-100) in experiment [3] (40 ppm).
